# Test system: parental untransformed BaF3 cells
# Assay: Tritiated thymidine uptake cell proliferation assay, parental BaF3
# Format: cell-based
# Settings: Mus musculus, BaF3, read-out: Parental IC50
# Experimental: Tritiated Thymidine Uptake Cell Proliferation Assay
# The parent untransformed BaF3 cells and ALK-negative cells are used as controls. Cells are seeded in U-bottomed 96-well plates at 10 000 cells/well in a volume of 100 μL in supplemented medium. In the case of the parent untransformed BaF3 cells, the medium is supplemented with IL-3. Serial dilutions of inhibitors are added to the appropriate wells and volumes adjusted to 200 μL. Controls were treated with the equivalent volume of vehicle, DMSO, alone. Plates are incubated at 37° C. for 72 h. ^3[H]-thymidine (1 μCiCi/well) is added for the last 8 h of incubation. Cells are harvested on to paper filters and ^3[H]-thymidine incorporation is measured using a β scintillation counter (1430 MicroBeta, Wallac, Turku, Finland). The 50% inhibitory concentration (IC50) is defined as the concentration of inhibitor, expressed in micromolar, that give a 50% decrease in ^3[H]-thymidine uptake compared with controls.
row,Compound,IC50 [µM]
1,"CC(C)OC(=O)CNCc1ccc(C(=O)Nc2nc(-c3cccc(C#C[Si](C(C)C)(C(C)C)C(C)C)c3)cs2)cc1 [Example 47, isopropyl 2-((4-((4-(3-((triisopropylsilyl)ethynyl)phenyl)thiazol-2-yl)carbamoyl)benzyl)amino)acetate]",> 25
2,"CC(C)[Si](C#Cc1cccc(-c2csc(NC(=O)c3ccc(Cn4ccnc4)cc3)n2)c1)(C(C)C)C(C)C [Example 46, 4-((1H-imidazol-1-yl)methyl)-N-(4-(3-((triisopropylsilyl)ethynyl)phenyl)thiazol-2-yl)benzamide]",11
3,"CN1CCN(C(=O)c2ccc(-c3ccc(C(=O)Nc4nc(-c5cccc(C#Cc6ccccc6C(F)(F)F)c5)cs4)o3)cc2)CC1 [Example 29, 5-(4-(4-methylpiperazine-1-carbonyl)phenyl)-N-(4-(3-((2-(trifluoromethyl)phenyl)ethynyl)phenyl)thiazol-2-yl)furan-2-carboxamide]",10
4,"CN1CCN(Cc2ccc(C(=O)Nc3nc(-c4cccc(C#C[Si](C)(C)C)c4)cs3)cc2)CC1 [Example 18, 4-((4-methylpiperazin-1-yl)methyl)-N-(4-(3-((trimethylsilyl)ethynyl)phenyl)thiazol-2-yl)benzamide]",0.45
5,"CC(C)[Si](C#Cc1ccc(-c2csc(NC(=O)c3ccc(CN4CCN(C)CC4)cc3)n2)cc1)(C(C)C)C(C)C [Example 35, 4-((4-methylpiperazin-1-yl)methyl)-N-(4-(4-((triisopropylsilyl)ethynyl)phenyl)thiazol-2-yl)benzamide]",7.3
6,"CN1CCN(Cc2ccc(C(=O)Nc3nc(-c4cccc(C#C[Si](C)(C)C(C)(C)C)c4)cs3)cc2)CC1 [Example 24, N-(4-(3-((tert-butyldimethylsilyl)ethynyl)phenyl)thiazol-2-yl)-4-((4-methylpiperazin-1-yl)methyl)benzamide]",2.4
7,"CC(C)(C)[Si](C)(C)C#Cc1cccc(-c2csc(NC(=O)c3ccc(CN4CCOCC4)cc3)n2)c1 [Example 40, N-(4-(3-((tert-butyldimethylsilyl)ethynyl)phenyl)thiazol-2-yl)-4-(morpholinomethyl)benzamide]",18
8,CC(C)[Si](C#Cc1cccc(-c2csc(NC(=O)c3ccc(Cn4cnnn4)cc3)n2)c1)(C(C)C)C(C)C [Example 45],8
9,"CC[Si](C#Cc1cccc(-c2csc(NC(=O)c3ccc(CN4CCN(C)CC4)cc3)n2)c1)(CC)CC [Example 17, 4-((4-methylpiperazin-1-yl)methyl)-N-(4-(3-((triethylsilyl)ethynyl)phenyl)thiazol-2-yl)benzamide]",0.46
10,"CN1CCN(Cc2ccc(C(=O)Nc3nc(-c4cccc(C#Cc5ccccc5)c4)cs3)cc2)CC1 [Example 1, 4-((4-methylpiperazin-1-yl)methyl)-N-(4-(3-(phenylethynyl)phenyl)thiazol-2-yl)benzamide]",4.7
11,"Cc1ccc(-c2csc(NC(=O)c3ccc(CN4CCN(C)CC4)cc3)n2)cc1C#C[Si](C(C)C)(C(C)C)C(C)C [Example 14, N-(4-(4-methyl-3-((triisopropylsilyl)ethynyl)phenyl)thiazol-2-yl)-4-((4-methylpiperazin-1-yl)methyl)benzamide]",7.8
12,"COc1ccccc1C#Cc1cc(-c2csc(NC(=O)c3ccc(CN4CCN(C)CC4)cc3)n2)ccc1C [Example 8, N-(4-(3-((2-methoxyphenyl)ethynyl)-4-methylphenyl)thiazol-2-yl)-4-((4-methylpiperazin-1-yl)methyl)benzamide]",1.5
13,"CC(C)[Si](OCC#Cc1cccc(-c2csc(NC(=O)c3ccc(-c4ccc(C(=O)N5CCN(C)CC5)cc4)o3)n2)c1)(C(C)C)C(C)C [Example 28, 5-(4-(4-methylpiperazine-1-carbonyl)phenyl)-N-(4-(3-(3-((triisopropylsilyl)oxy)prop-1-yn-1-yl)phenyl)thiazol-2-yl)furan-2-carboxamide]",3.7
14,"CN1CCN(Cc2ccc(C(=O)Nc3nc(-c4cccc(C#Cc5ccc(F)cc5)c4)cs3)cc2)CC1 [Example 32, N-(4-(3-((4-fluorophenyl)ethynyl)phenyl)thiazol-2-yl)-4-((4-methylpiperazin-1-yl)methyl)benzamide]",2.4
15,"C#Cc1cccc(-c2csc(NC(=O)c3ccc(CN4CCN(C)CC4)cc3)n2)c1 [Example 49, N-(4-(3-ethynylphenyl)thiazol-2-yl)-4-((4-methylpiperazin-1-yl)methyl)benzamide]",4
16,"CN1CCN(Cc2ccc(C(=O)Nc3nc(-c4ccc(C#Cc5ccccc5C(F)(F)F)c(C#Cc5ccccc5C(F)(F)F)c4)cs3)cc2)CC1 [Example 13, N-(4-(3,4-bis((2-(trifluoromethyl)phenyl)ethynyl)phenyl)thiazol-2-yl)-4-((4-methylpiperazin-1-yl)methyl)benzamide]",3.1

row,Compound,IC50 [µM]
1,"CCCCC#Cc1cccc(-c2csc(NC(=O)c3ccc(CN4CCN(C)CC4)cc3)n2)c1 [Example 20, N-(4-(3-(hex-1-yn-1-yl)phenyl)thiazol-2-yl)-4-((4-methylpiperazin-1-yl)methyl)benzamide]",7.3
2,"CN1CCN(C(=O)c2ccc(-c3ccc(C(=O)Nc4nc(-c5cccc(C#C[Si](C)(C)C(C)(C)C)c5)cs4)o3)cc2)CC1 [Example 27, N-(4-(3-((tert-butyldimethylsilyl)ethynyl)phenyl)thiazol-2-yl)-5-(4-(4-methylpiperazine-1-carbonyl)phenyl)furan-2-carboxamide]",2.3
3,"Cc1ccc(-c2csc(NC(=O)c3ccc(CN4CCN(C)CC4)cc3)n2)cc1C#Cc1ccccc1C(F)(F)F [Example 7, N-(4-(4-methyl-3-((2-(trifluoromethyl)phenyl)ethynyl)phenyl)thiazol-2-yl)-4-((4-methylpiperazin-1-yl)methyl)benzamide]",5
4,"Cc1ccc(-c2csc(NC(=O)c3ccc(CN4CCN(C)CC4)cc3)n2)cc1C#Cc1ccccc1 [Example 4, N-(4-(4-methyl-3-(phenylethynyl)phenyl)thiazol-2-yl)-4-((4-methylpiperazin-1-yl)methyl)benzamide]",5.3
5,"CN1CCN(Cc2ccc(C(=O)Nc3nc(-c4cccc(C#Cc5ccccc5C(F)(F)F)c4)cs3)cc2)CC1 [Example 12, 4-((4-methylpiperazin-1-yl)methyl)-N-(4-(3-((2-(trifluoromethyl)phenyl)ethynyl)phenyl)thiazol-2-yl)benzamide]",1.8
6,"C#CCN1CCN(Cc2ccc(C(=O)Nc3nc(-c4cccc(C#C[Si](C(C)C)(C(C)C)C(C)C)c4)cs3)cc2)CC1 [Example 50, 4-((4-(prop-2-yn-1-yl)piperazin-1-yl)methyl)-N-(4-(3-((triisopropylsilyl)ethynyl)phenyl)thiazol-2-yl)benzamide]",> 50
7,"CN1CCN(Cc2ccc(C(=O)Nc3nc(-c4ccc(C#Cc5cc(C(F)(F)F)cc(C(F)(F)F)c5)cc4)cs3)cc2)CC1 [Example 36, N-(4-(4-((3,5-bis(trifluoromethyl)phenyl)ethynyl)phenyl)thiazol-2-yl)-4-((4-methylpiperazin-1-yl)methyl)benzamide]",6.9
8,"Cc1cc(-c2csc(NC(=O)c3ccc(CN4CCN(C)CC4)cc3)n2)ccc1C#C[Si](C(C)C)(C(C)C)C(C)C [Example 15, N-(4-(3-methyl-4-((triisopropylsilyl)ethynyl)phenyl)thiazol-2-yl)-4-((4-methylpiperazin-1-yl)methyl)benzamide]",14
9,"Cc1ccc(C#Cc2cc(-c3csc(NC(=O)c4ccc(CN5CCN(C)CC5)cc4)n3)ccc2C)cc1 [Example 5, N-(4-(4-methyl-3-(p-tolylethynyl)phenyl)thiazol-2-yl)-4-((4-methylpiperazin-1-yl)methyl)benzamide]",5.3
10,"CC(C)[Si](OCC#Cc1cccc(-c2csc(NC(=O)c3ccc(CN4CCN(C)CC4)cc3)n2)c1)(C(C)C)C(C)C [Example 22, 4-((4-methylpiperazin-1-yl)methyl)-N-(4-(3-(3-((triisopropylsilyl)oxy)prop-1-yn-1-yl)phenyl)thiazol-2-yl)benzamide]",8.5
11,"CC(C)[Si](C#Cc1cccc(-c2csc(NC(=O)c3ccc(-c4ccc(C(=O)N5CCN(C)CC5)cc4)o3)n2)c1)(C(C)C)C(C)C [Example 26, 5-(4-(4-methylpiperazine-1-carbonyl)phenyl)-N-(4-(3-((triisopropylsilyl)ethynyl)phenyl)thiazol-2-yl)furan-2-carboxamide]",11
12,"CN1CCN(Cc2ccc(C(=O)Nc3nc(-c4ccc(C#C[Si](C)(C)C(C)(C)C)cc4)cs3)cc2)CC1 [Example 37, N-(4-(4-((tert-butyldimethylsilyl)ethynyl)phenyl)thiazol-2-yl)-4-((4-methylpiperazin-1-yl)methyl)benzamide]",2.4
13,"CN1CCN(Cc2ccc(C(=O)Nc3nc(-c4cccc(C#Cc5cc(C(F)(F)F)cc(C(F)(F)F)c5)c4)cs3)cc2)CC1 [Example 33, N-(4-(3-((3,5-bis(trifluoromethyl)phenyl)ethynyl)phenyl)thiazol-2-yl)-4-((4-methylpiperazin-1-yl)methyl)benzamide]",7.1
14,"CC(C)[Si](C#Cc1cccc(-c2csc(NC(=O)c3ccc(CN4CCN(C)CC4)cc3)n2)c1)(C(C)C)C(C)C [Example 48, 4-((4-methylpiperazin-1-yl)methyl)-N-(4-(3-((triisopropylsilyl)ethynyl)phenyl)thiazol-2-yl)benzamide]",13
15,"CN1CCN(Cc2ccc(C(=O)Nc3nc(-c4cccc(C#Cc5ccccc5OC(F)(F)F)c4)cs3)cc2)CC1 [Example 42, 4-((4-methylpiperazin-1-yl)methyl)-N-(4-(3-((2-(trifluoromethoxy)phenyl)ethynyl)phenyl)thiazol-2-yl)benzamide]",2.6

# From patent US9708279B2, “2-acylaminothiazoles for the treatment of cancer” (UNIVERSITA′ DEGLI STUDI DI MILANO-BICOCCA, priority 2013, dated 2017)
